In PMC5578999, “Novel quinolone chalcones targeting colchicine-binding pocket kill multidrug-resistant cancer cells by inhibiting tubulin activity and MRP1 function” (Scientific Reports, 2017):

Assays:
[1] = system: non-cancerous cells (MCF 10A and 184B5); test: SRB cell viability, cancer vs non-cancer cells; format: cell-based; settings: cancer cells vs MCF 10A and 184B5
Description: and MCF10AT1 cells were cultured in Dulbecco's Modified Eagle's Medium/Ham's Nutrient Mixture F-12 (DME/F12) supplemented with 10% (volume/volume) FBS , 100 μg/ml streptom ycin and 100 units/ml penicillin, antim ycotic solution, 0.5 μg/ml hydrocortisone, 10 ng/ml human epiderm al growth factor (hEGF) and 5 μg/ml insulin, whereas MCF10CA1a cell line was cultured in DM EM supplemented with 10% FBS (volume/volume). […]
(§1) Dr. Susan Cole (Queen’s Universit y, Kingston, Ontario, Canada). The pacl itaxel-resistant MDA-MB-231TaxR cell line was generated in house b y culturing MDA-MB-231 cells (purchased from ATCC and authen ticated ) in the gradual l y incr easi ng con centr ations of pacl itax el until the concentration reached to 100 nM. Cell line authentication was carried out by Genetica DNA Laboratories (Burlington, NC) using a short tandem repeat (STR) profiling method (March 2015; […]
(§2) Cell viability, com binational i ndex and cell synchronization
(§3) Cell viability and proliferation were ex amined using a s ulforhodamine B (SRB) assa y as described previousl y (Hu et al., 2008). IC 50 values were calculat ed from si gmoidal dose-response cu rves gen erat ed b y at least two indepen dent ex periments , with each quadruplicate samples, using GraphPad Prism v.5.04 software (GraphPad Software, Inc, La J olla, CA). […]

MDR1 = test: Rh123 dye efflux assay, KB-C-2 cells; format: cell-based; settings: MDR1, KB-C-2 cells; 22 µmol/L of drug; DMSO control 58.0%
Description: Rhodamine123 (Rh123) drug efflux was carried out using a Multidrug-Resistance Direct Dye Efflux Activity Kit (Millipore, Darmstadt, Germany), with some modifications. […] Reading was carried out with a Beckman Coulter FC500 flow cytometer.

MCF 10A = test: SRB cell survival, MCF 10A isogenic lines; format: cell-based; settings: 0.39 μmol/L; MCF 10A (non-cancer)
Description: (§4) and MCF10AT1 cells were cultured in Dulbecco's Modified Eagle's Medium/Ham's Nutrient Mixture F-12 (DME/F12) supplemented with 10% (volume/volume) FBS , 100 μg/ml streptom ycin and 100 units/ml penicillin, antim ycotic solution, 0.5 μg/ml hydrocortisone, 10 ng/ml human epiderm al growth factor (hEGF) and 5 μg/ml insulin, whereas MCF10CA1a cell line was cultured in DM EM supplemented with 10% FBS (volume/volume). KB-3- 1, parental human epidermoid carcinoma cell line and KB-C2, an isogenic MDR1- overexpressing drug-resistant cell line, were kindl y provided b y Dr. Amit K Tiwari, the Universit y of Toledo, OH.
as §1, with “Parental HEK293 and M RP1- overexpressing HEK293- MRP1 isogenic cel ls were kind gifts of Dr.” for “Dr.”
as §2
as §3, with “CA). For combinational experiments on the KB -C-2 cells, CTR compounds and pacli taxel or ABT - 737/ABT-199 w ere us ed at or below IC 50 . The combinational index (CI) w as calculat ed as previousl y described (Chou, 2006).” for “CA).”
(§5) Cell cycl e pro gr ession in the absence (sham) o r pr esence o f compound(s ) was determined with a Beckman Coulter Epics Elite FC 500 Flow C ytom eter as described previousl y (Romero

MCF 10AT1 = test: SRB cell survival, MCF 10A isogenic lines; format: cell-based; settings: 0.39 μmol/L; MCF 10AT1 (premalignant)
Description: as §4
as §1, with “Parental HEK293 and M RP1- overexpressing HEK293- MRP1 isogenic cel ls were kind gifts of Dr.” for “Dr.”
as §2
as §3, with “CA). For combinational experiments on the KB -C-2 cells, CTR compounds and pacli taxel or ABT - 737/ABT-199 w ere us ed at or below IC 50 . The combinational index (CI) w as calculat ed as previousl y described (Chou, 2006).” for “CA).”
as §5

MCF 10CA1a = test: SRB cell survival, MCF 10A isogenic lines; format: cell-based; settings: 0.39 μmol/L; MCF 10AC1a (fully malignant)
Description: as §4
as §1, with “Parental HEK293 and M RP1- overexpressing HEK293- MRP1 isogenic cel ls were kind gifts of Dr.” for “Dr.”
as §2
as §3, with “CA). For combinational experiments on the KB -C-2 cells, CTR compounds and pacli taxel or ABT - 737/ABT-199 w ere us ed at or below IC 50 . The combinational index (CI) w as calculat ed as previousl y described (Chou, 2006).” for “CA).”
as §5

NCI-60 cancer cell lines = test: NCI-60 SRB screen, panel means; format: cell-based; settings: mean of panel
Excerpt: Supplementary Table S 3: Antitumor activity of CTR -17 and CTR -20, alone or in combination […]
a Tax: paclitaxel. b mg per kg of bod y wei ght. c unit is mm 3.
Supplementary Figure l egend
10μ M of CTR-20 was used to examine the drug’s efficac y against the NC I-60 cancer cell li nes including: six leukemia cell lines, nine non- small cell lung cancer cell lines, seven color ect al cancer cell lines, six CNS cancer cell lines, nine melanoma cell lines, seven ovari an can cer cell lines, seven ren al can cer cell lines, two prostate cancer cell lines and six breast cancer cell lines. The scr eenin g was car r ied out b y the US National Cancer Institute (NC I) us i n g a sulforhodamine B (SRB) colorimetric assay. […]
out by the NC I using five different doses of CTR -20.

[2] = biological target: tubulin, colchicine-binding pocket; test: Competitive colchicine-tubulin binding assay (modified Dixon plot); settings: competitive with colchicine
Description: To determine the mode of binding, a competitive binding assay was carried out as described previously. Briefly, tubulin (0.4 μmol/L) was incubated with different concentrations of CTR for 1 hour at 37 °C. Subsequently, colchicine was added to the reaction mixture containing CTR-tubulin complexes. […] Fluorescence was monitored using an automated plate reader (Synergy H4 Hybrid Multi-Mode Micro plate Reader) with an excitation wavelength at 360 nm and emission at 430 nm. […] The experiment was repeated four times.

Structure (SMILES)	killed cancer cells more effectively than non-cancerous cells [1]	Rh123 retention (MDR1)	cell survival rate (MCF 10A)	cell survival rate (MCF 10AT1)	cell survival rate (MCF 10CA1a)	Mean Growth Percent (NCI-60 cancer cell lines; 1.00E-5 Molar)	Log10GI50 _MID (NCI-60 cancer cell lines)	Log10LC50 _MID (NCI-60 cancer cell lines)	Log10TGI _MID (NCI-60 cancer cell lines)	binding to the colchicine-binding pocket by Ki values, relative to CTR-17 [2]
COc1ccccc1C(=O)/C=C/c1cc2ccccc2[nH]c1=O [CTR-17, (E)-3-(3-(2-Methoxyphenyl)-3-oxoprop-1-enyl)quinolin-2(1H)-one]	20–26 folds									
COc1ccc2[nH]c(=O)c(/C=C/C(=O)c3ccccc3OC)cc2c1 [CTR-20, (E)-6-Methoxy-3-(3-(2-methoxyphenyl)-3-oxoprop-1-enyl) quinolin-2(1H)-one]	20–26 folds	57.9%	75%	20%	10%	13.21%	-6.21 Molar	-4.58 Molar	-5.29 Molar	approximately five times more strongly
